For 14 molecules, EC50 results are on record in patent US20240327393A1 (SIRONAX LTD., priority 2021, published 2024).

The EC50 is the concentration that produces a half-maximal response.

Like-named read-outs stand apart in the source and are kept apart here.

In this experiment the test system is HT-1080 (ATCC, CCL-121) cells. Put plainly: HT-1080 cell viability assay with ferroptosis inducer RSL3 (Cell Titer-Glo). It counts as cell-based. The note with it: HT-1080 cells treated with RSL3, 3-fold, 10-point dilution, 1.1 μM highest concentration, read-out: EC50 (nM), ferroptosis inhibitory activity. The gist of the method: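 EC50 was derived by sigmoidal dose-response regression of CellTiter-Glo luminescence viability, expressed relative to untreated wells. Compounds were tested in a ten-point, threefold dilution series (highest 1.1 μM) in the presence of the ferroptosis inducer RSL3. HT-1080 cells had been seeded at 6000 per well and grown overnight first.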

Consider `Cc1cc(N2CCC(C(F)(F)F)C2)ccc1Nc1ccc2c(c1)OCC(=O)N2` (centres unmarked) [Compound 588, 7-((2-methyl-4-(3-(trifluoromethyl)pyrrolidin-1-yl)phenyl)amino)-2H-benzo[b][1,4]oxazin-3(4H)-one], for which the EC50 (Table 3) is 0.1 to 100 nM.
For `CC1CN(c2ccc(Nc3ccc4c(c3)OCC(=O)N4)cc2)CCO1` (centres unmarked) [Compound 148, 7-((4-(2-methylmorpholino)phenyl)amino)-2H-benzo[b][1,4]oxazin-3(4H)-one], for the setting “Homo sapiens, Table 2”, the concentration for a half-maximal effect (EC50) fell in the range of 0.1 to 100 nM.
Turning to `CN1C(=O)COc2ccc(Nc3ccc(N4CCC(C(F)(F)F)CC4)cc3)cc21` [Compound 28, 4-methyl-6-((4-(4-(trifluoromethyl)piperidin-1-yl)phenyl)amino)-2H-benzo[b][1,4]oxazin-3(4H)-one], for the setting “Homo sapiens, Table 2”, the EC50 lay in the range of 0.1 to 100 nM.
With `Cc1cc(N2CC(C)OC(C(F)(F)F)C2)ccc1Nc1ccc2c(c1)OCC(=O)N2` (centres unmarked) [Compound 562, 7-((2-methyl-4-(2-methyl-6-(trifluoromethyl)morpholino)phenyl)amino)-2H-benzo[b][1,4]oxazin-3(4H)-one], the EC50 (Homo sapiens, Table 3) was 0.1 to 100 nM.
As to `Cc1cc(N2CCC(C(F)(F)F)CC2)ccc1Nc1ccc2[nH]ncc2c1` [Compound 497, N-(2-methyl-4-(4-(trifluoromethyl)piperidin-1-yl)phenyl)-1H-indazol-5-amine], the EC50 (Homo sapiens, Table 3) was in the range of 0.1 to 100 nM.
Regarding `CNCCN1C(=O)COc2cc(Nc3ccc(N4CC(C)OC(C)C4)cc3C)ccc21` (centres unmarked) [Compound 55, 7-((4-(2,6-dimethylmorpholino)-2-methylphenyl)amino)-4-(2-(methylamino)ethyl)-2H-benzo[b][1,4]oxazin-3(4H)-one], the EC50 (Homo sapiens, Table 2) is 0.1 to 100 nM.
Turning to `COc1cc(Nc2cnc3c(c2)OCC(=O)N3)c(C)cc1N1CCC(C(F)(F)F)CC1` [Compound 547, 7-((5-methoxy-2-methyl-4-(4-(trifluoromethyl)piperidin-1-yl)phenyl)amino)-2H-pyrido[3,2-b][1,4]oxazin-3(4H)-one], where the note is “Homo sapiens, Table 3”, the EC50 lay in the range of 0.1 to 100 nM.
`C/N=c1\n(C)c2ccc(Nc3ccc(N4CCC(C(F)(F)F)CC4)cc3)cc2n1C` [Compound 340, 1,3-dimethyl-2-(methylimino)-N-(4-(4-(trifluoromethyl)piperidin-1-yl)phenyl)-2,3-dihydro-1H-benzo[d]imidazol-5-amine]: where the note is “Homo sapiens, Table 2”, the EC50 lay in the range of 0.1 to 100 nM.
On to `Cn1c(=O)oc2cc(Nc3ccc(N4CC5(CCCC5)C4)cc3)ccc21` [Compound 316, 6-((4-(2-azaspiro[3.4]octan-2-yl)phenyl)amino)-3-methy/benzo[d]oxazol-2′3H-one], for which, where the note is “Homo sapiens, Table 2”, the concentration for a half-maximal effect (EC50) is 0.1 to 100 nM.
Still for that read-out and setting: for `Cn1c(=O)oc2cc(Nc3ccc(N4C[C@H]5CC[C@@H]4C5)cc3)ccc21` [Compound 315, 6-((4-((1R,4S)-2-azabicyclo[2.2.1]heptan-2-yl)phenyl)amino)-3-methylbenzo[d] oxazol-2(3H)-one] the value was 0.1 to 100 nM; for `CN1Cc2cc(Nc3ccc(N4CC5(CCCC5)C4)cc3)ccc2C1=O` [Compound 246, 5-((4-(2-azaspiro[3.4]octan-2-yl)phenyl)amino)-2-methylisoindolin-1-one], 0.1 to 100 nM; for `Cc1cc(N2CCC(C(F)(F)F)CC2)cc(C)c1Nc1ccc2c(c1)OCC(=O)N2C` [Compound 79, 7-((2,6-dimethyl-4-(4-(trifluoromethyl)piperidin-1-yl)phenyl)amino)-4-methyl-2H-benzo[b][1,4]oxazin-3(4H)-one], 0.1 to 100 nM.
Still for that read-out and setting: for `CN(C)c1cn(C)c2cccc(Nc3ccc(N4CCC(C(F)(F)F)CC4)cc3)c12` [Compound 399, N3,N3,1-trimethyl-N4-(4-(4-(trifluoromethyl)piperidin-1-yl)phenyl)-1H-indole-3,4-diamine] the value was 0.1 to 100 nM; for `CC(C)(C)C(=O)N1Cc2ccc(Nc3ccc(N4CCC(C(F)(F)F)CC4)cc3)cc2C1` [Compound 181, 2,2-dimethyl-1-(5-((4-(4-(trifluoromethyl)piperidin-1-yl)phenyl)amino)isoindolin-2-yl)propan-1-one], 0.1 to 100 nM.
